Where two headings read alike, the source gives them in different places.
Molecular target: T1, Ouabain sensitive dog kidney Na^+/K^+ ATPase (Canis lupus familiaris, UniProt P50997)
T1 construct: Ouabain sensitive dog kidney Na^+/K^+ ATPase was obtained from Sigma (Shanghai, China); purchased Sigma (Shanghai, China); host or cells: dog kidney (tissue-derived enzyme preparation)
Experiment: Assay of Na+/K+ ATPase activity (released inorganic phosphate, absorbance at 660 nm)
Format: biochemical
Description: Specific rotation measurements were recorded on a Perkin-Elmer 242 MC polarimeter. UV spectra were recorded on a Hewlett-Packard HP-845 UV-VIS spectrophotometer. IR spectra were recorded on a Nicolet 470 spectrometer and MS on a Varian MAT-212 mass spectrometer and a Shimadzu GC-MS model QP2010 Plus spectrophotometer, respectively. NMR spectra were recorded on a Bruker AM-400 spectrameter (400 MHz for ^1H-NMR) or a Bruker DRX-500 (500 MHz for ^1H-NMR) spectrameter using standard Bruker pulse programs. Chemical shifts are given as δ values with reference to tetramethylsilane (TMS) as internal standard. Column chromatography separations were carried out on silica gel (200–300 mesh, Qingdao Haiyang Chemical Co. Ltd, Qingdao, China), ODS (50 mesh, AA12S50, YMC), Diaion HP-20 (Pharmacia, Peapack, NJ, USA) and Sephadex LH-20 (Pharmacia, Peapack, NJ, USA). Ouabain sensitive dog kidney Na^+/K^+ ATPase was obtained from Sigma (Shanghai, China). All other chemicals used were of biochemical reagent grade.
The Na^+/K^+ ATPase activity was assayed according to the reported method with some modification. […] The released inorganic phosphate was determined by the following method. […] After 25 min, the absorbance at 660 nm was recorded.

Compound | IC50 (0.02 units enzyme, 3 mM ATP, pH 7.3, 37 °C, 20 min, 5% DMSO, read-out: IC50, inhibitory activity on Na^+/K^+ ATPase) | IC50
CC1CCC2(OC1)OC1CC3C4CC(=O)C5CC(OC6OC(CO)C(O)C(O)C6OC6OC(C)C(O)C(O)C6O)CCC5(C)C4CCC3(C)C1C2C [Compound 3, (25R)-3β-hydroxyl-5α-spirostan-6-one 3-O-α-L-rhamnopyranosyl-(1→2)-β-D-glucopyranoside] | 73 µM | –
C[C@@H]1O[C@@H](O[C@H]2C[C@@H](O)[C@]3(CO)[C@H]4[C@H](O)C[C@]5(C)[C@@H](C6=CC(=O)OC6)CC[C@]5(O)[C@@H]4CC[C@]3(O)C2)[C@H](O)[C@H](O)[C@H]1O [Ouabain, reference compound] | – | 1 µM

Reference: paper PMC6268628, “Steroidal and Phenolic Glycosides from the Bulbs of Lilium pumilum DC and Their Potential Na^+/K^+ ATPase Inhibitory Activity” (Molecules, 2012)
